Data reported in patent US5889002A, “Fused 1,2,4-thiadiazine and fused 1,4-thiazine derivatives, their preparation and use” (Novo Nordisk A/S, priority 1996, dated 1999).
pEC50: −log10 of the molar value.

Assays:
RIN 5F cell line = experiment: 86Rb+ efflux from a β-cell line (Rb-efflux in rin 5F cells); format: cell-based; conditions: 1 h at room temperature, Ringer buffer pH 7.1, four parameter logistic curve, read-out: EC50, inhibition of Rb-efflux
Experimental: ^86 Rb^+ efflux from a β-cell line
The RIN 5F cell line was grown in RPMI 1640 with Glutamax I, supplemented with 10% fetal calf serum (from GibcoBRL, Scotland, UK) and maintained in an atmosphere of 5% CO2 /95% air at 37° C. The cells were detached with a Trypsin-EDTA solution (from GibcoBRL, Scotland, UK), resuspended in medium, added 1 mCi/ml ^86 Rb^+ and replated into microtiter plates (96 well cluster 3596, sterile, from Costar Corporation,Massachusetts, U.S.A.) at a density of 50000 cells/well in […], and grown 24 hours before use in assay.
The plates were washed 4 times with Ringer buffer (150 mM NaCl, 10 mM Hepes, 3.0 mM KCl, 1.0 mM CaCl2, 20 mM Sucrose, pH 7.1). Eighty μl Ringer buffer and 1 μl control- or test compound dissolved in DMSO was added. After incubation 1 h at room temperature with a lid, 50 μl of the supernatant was transferred to PicoPlates (Packard Instrument Company, Connecticut, U.S.A.) and 100 μl MicroScint40 (Packard Instrument Company, Connecticut, U.S.A.) added. The plates were counted in TopCount (Packard Instrument Company, Connecticut, U.S.A.) for 1 min/well at the ^32 P program. […]

rat aorta rings = experiment: Relaxation of rat aorta rings; conditions: rat thoracic aorta rings, phenylephrine-contracted to 80% of maximum response; cumulative addition; read-out: EC50 (concentration required to evoke a 50% relaxation of the tissue)
Experimental: The activity of the compounds as potassium channel openers can also be measured as relaxation of rat aortas rings according to the following procedure:
A section of rat thoracic aorta between the aortic arch and the diaphragm was dissected out and mounted as ring preparations as described by Taylor P. D. et al, Brit J. Pharmacol, 111, 42-48 (1994).
After a 45 min. equilibration period under a tension of 2 g, the preparations were contracted to achieve 80% of the maximum response using the required concentration of phenylephrine. When the phenylephrine response reached a plateau, potential vasodilatory agents were added cumulatively to the bath in small volumes using half log molar increments at 2 min intervals. Relaxation was expressed at the percentage of the contracted tension. The potency of a compound was expressed as the concentration required to evoke a 50% relaxation of the tissue.
Relaxation of rat aorta rings

| pEC50 (RIN 5F cell line) | pEC50 (rat aorta rings) | SMILES |
| --- | --- | --- |
| 5.57 | 5.92 | CC(C)C(C)NC1=NS(=O)(=O)c2sc(Cl)cc2N1 (centres unmarked) [Compound 1, 6-Chloro-3-(1,2-dimethylpropyl)amino-4H-thieno[3,2-e]-1,2,4-thiadiazine 1,1-dioxide] |
| – | 4.82 | CCNC1=NS(=O)(=O)c2sc(Cl)cc2N1 [Compound 2, 6-Chloro-3-ethylamino-4H-thieno[3,2-e]-1,2,4-thiadiazine 1,1-dioxide] |
| 5.23 | 5.21 | C[C@H](CO)NC1=NS(=O)(=O)c2sc(Cl)cc2N1 [Compound 16, (R)-6-Chloro-3-(2-hydroxy-1-methylethyl)amino-4H-thieno[3,2-e]-1,2,4-thiadiazine 1,1-dioxide] |
